Patent US20110160180A1, “Cannabinoid Receptor Ligands” (ASTRAZENECA AB, priority 2008, published 2011)
Several values for one entry are separate records, joined by “and”; a condition that tells them apart may be missing. Equal entries are not always repeated.

The molecules below were run against Human CB1 receptor (hCB1) (Homo sapiens, UniProt P21554) (assay: hCB1 GTPγS binding). Details: hCB1 membranes, GTPg35S binding; maximal stimulated binding determined with 10 μM Win 55,212-2.
Format: biochemical
Protocol: hCB1 and hCB2GTPγS Binding
Human CB1 receptor from Receptor Biology (hCB1) or human CB2 receptor membranes (BioSignal) are thawed at 37° C., passed 3 times through a 25-gauge blunt-end needle and diluted in the GTPγS binding buffer (50 mM Hepes, 20 mM NaOH, 100 mM NaCl, 1 mM EDTA, 5 mM MgCl2, pH 7.4, 0.1% BSA). […] The basal and maximal stimulated binding is determined in absence and presence of 1 μM (hCB2) or 10 μM (hCB1) Win 55,212-2 respectively. The membranes are pre-incubated for 5 minutes with 56.25 μM (hCB2) or 112.5 μM (hCB1) GDP prior to distribution in plates (15 μM (hCB2) or 30 μM (hCB1) GDP final). The plates are vortexed and incubated for 60 minutes at room temperature, filtered on Unifilters GF/B (presoaked in water) with the Tomtec or Packard harvester using 3 ml of wash buffer (50 mM Tris, 5 mM MgCl2, 50 mM NaCl, pH 7.0). The filters are dried for 1 hour at 55° C. The radioactivity (cpm) is counted in a TopCount (Packard) after adding 65 μl/well of MS-20 scintillation liquid. Antagonist reversal studies are done in the same way except that (a) an agonist dose-response curve is done in the presence of a constant concentration of antagonist, or (b) an antagonist dose-response curve is done in the presence of a constant concentration of agonist.

Sequence of Human CB1 receptor (hCB1) (P21554 whole entry): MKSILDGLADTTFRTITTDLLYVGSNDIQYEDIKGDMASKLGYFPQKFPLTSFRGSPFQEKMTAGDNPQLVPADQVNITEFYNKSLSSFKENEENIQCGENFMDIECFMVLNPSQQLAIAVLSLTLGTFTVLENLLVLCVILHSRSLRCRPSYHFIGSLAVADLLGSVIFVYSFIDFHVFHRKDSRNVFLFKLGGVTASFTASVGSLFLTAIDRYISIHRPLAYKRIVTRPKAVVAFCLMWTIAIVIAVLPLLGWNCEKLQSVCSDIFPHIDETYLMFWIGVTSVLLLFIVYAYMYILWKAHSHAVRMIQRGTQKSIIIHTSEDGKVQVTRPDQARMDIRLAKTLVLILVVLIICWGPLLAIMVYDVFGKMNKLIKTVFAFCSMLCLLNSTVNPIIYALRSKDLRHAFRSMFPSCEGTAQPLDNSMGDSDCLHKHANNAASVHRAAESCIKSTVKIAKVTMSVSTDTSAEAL

Compound | hCB1 EMax
Cn1c2c(c3cc(C(=O)N4CC[C@H](C(=O)NCCF)C4)ccc31)CC(C1CCOCC1)CC2 (stereo partly drawn) [(3S)-N-(2-fluoroethyl)-1-[9-methyl-6-(oxan-4-yl)5,6,7,8-tetrahydrocarbazole-3-carbonyl]pyrrolidine-3-carboxamide] | 113%
Cn1c2c(c3cc(C(=O)N4CC[C@H](C(=O)NC5CC5)C4)ccc31)CC(C1CCOCC1)CC2 (stereo partly drawn) [(3S)-N-cyclopropyl-1-[9-methyl-6-(oxan-4-yl)5,6,7,8-tetrahydrocarbazole-3-carbonyl]pyrrolidine-3-carboxamide] | 127%
CNC(=O)CCCN(C)C(=O)c1ccc2c(c1)c1c(n2C)CCC(C2CCOCC2)C1 (centres unmarked) [N,9-dimethyl-N-[3-(methylcarbamoyl)propyl]-6-(oxan-4-yl)-5,6,7,8-tetrahydrocarbazole-3-carboxamide] | 121%
CN(CC(=O)NC1CC1)C(=O)c1ccc2c(c1)c1c(n2C)CCC(C2CCOCC2)C1 (centres unmarked) [N-(cyclopropylcarbamoylmethyl)-N,9-dimethyl-6-(oxan-4-yl)-5,6,7,8-tetrahydrocarbazole-3-carboxamide] | 107%
CCN(CC(=O)NC1CC1)C(=O)c1ccc2c(c1)c1c(n2C)CCC(C2CCOCC2)C1 (centres unmarked) [N-(cyclopropylcarbamoylmethyl)-N-ethyl-9-methyl-6-(oxan-4-yl)-5,6,7,8-tetrahydrocarbazole-3-carboxamide] | 118% and 106%
CN(CCCC(=O)NCCF)C(=O)c1ccc2c(c1)c1c(n2C)CCC(C2CCOCC2)C1 (centres unmarked) [N-[3-(2-fluoroethylcarbamoyl)propyl]-N,9-dimethyl-6-(oxan-4-yl)-5,6,7,8-tetrahydrocarbazole-3-carboxamide] | 131% and 112%
CCN(CC(=O)NCCO)C(=O)c1ccc2c(c1)c1c(n2S(=O)(=O)CC)CCC(C2CCOCC2)C1 (centres unmarked) [N-ethyl-9-ethylsulfonyl-N-(2-hydroxyethylcarbamoylmethyl)-6-(oxan-4-yl)-5,6,7,8-tetrahydrocarbazole-3-carboxamide] | 115%
CCN(CC(=O)NCCF)C(=O)c1ccc2c(c1)c1c(n2C)CCC(C2CCOCC2)C1 (centres unmarked) [N-ethyl-N-(2-fluoroethylcarbamoylmethyl)-9-methyl-6-(oxan-4-yl)-5,6,7,8-tetrahydrocarbazole-3-carboxamide] | 119% and 111%
